Values of other authors, collected in patent publication KR20170036668A, “피부 발진의 예방 또는 치료용 약학 조성물” (주식회사 대웅제약, priority 2014, dated 2017).

Tests used:
피부 발진 = conditions: prophylactic treatment; Jatoi A et al., Cancer 113:847-853

SMILES	Incidence of erlotinib related skin effect (ERSE) (NSCLC and PC clinical trials)	Proportion of patients with grade 3-4 ERSE (NSCLC and PC clinical trials)	Time to onset of rash after start of treatment (rash above the waist)	Improvement of skin rash versus placebo (피부 발진)
C#Cc1cccc(Nc2ncnc3cc(OCCOC)c(OCCOC)cc23)c1 [엘로티닙]	75%	~10%	7-10 일	–
CN(C)[C@@H]1C(O)=C(C(N)=O)C(=O)[C@@]2(O)C(O)=C3C(=O)c4c(O)cccc4[C@@](C)(O)[C@H]3C[C@@H]12 [테트라사이클린]	–	–	–	30%
